Experimental data taken from patent US20070202079A1, “Therapeutic compositions and methods useful in modulating protein tyrosine phosphatases” (priority 2006, published 2007).
Like-named read-outs stand apart in the source and are kept apart here.

Tests used:
[1] = biological target: T1, MKP1 (Homo sapiens, UniProt P28562); test: in vitro PTPase assay, GST/MKP1; format: biochemical; conditions: for inhibition of MKP1: levamisole, pentamidine, ketoconazole
T1 construct: a pGEX construct containing the coding region of MKP1 cDNA derived by RT-PCR; made in house; host or cells: DH5a bacteria (E. coli)
T1 sequence (P28562 1-367): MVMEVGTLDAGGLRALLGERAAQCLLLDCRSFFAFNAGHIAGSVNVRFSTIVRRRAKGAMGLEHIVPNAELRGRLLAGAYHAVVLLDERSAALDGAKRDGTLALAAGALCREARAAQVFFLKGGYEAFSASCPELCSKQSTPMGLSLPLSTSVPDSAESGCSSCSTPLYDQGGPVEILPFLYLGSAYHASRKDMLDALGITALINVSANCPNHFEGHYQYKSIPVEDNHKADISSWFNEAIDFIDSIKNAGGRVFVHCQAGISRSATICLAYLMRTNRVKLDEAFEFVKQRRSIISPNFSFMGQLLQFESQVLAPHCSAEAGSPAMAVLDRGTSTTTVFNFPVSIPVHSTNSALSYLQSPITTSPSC
Procedure: In vitro PTPase activities were measured using the commercial protein tyrosine phosphatase assay kit (Upstate Biotechnology, Inc. (“UBI”)) following established procedure known to one of skill in the art. This assay measures the in vitro dephosphorylation of a synthetic phosphotyrosine peptide of the sequence Arg-Arg-Leu-Ile-Glu-Asp-Ala-Gle-T- -yr-Ala-Ala-Arg-Gly, wherein the tyrosine is phosphorylated (SEQ ID NO: 3). Briefly, 0.01 μg of GST/PTPase fusion proteins was incubated in 50 μl of Tris buffer (10 mM Tris, pH 7.4) containing different concentrations of inhibitors or chemicals (0-1,000 μg/ml) at 22° C. for 10 minutes, followed by addition of 0.2 mM of the phosphotyrosine peptide and incubation at 22° C. for 18 hours. 100 μl of Malachite Green solution was added and incubated for 5 minutes, and the absorbance at 660 nm was measured after 5 minutes.
In vitro PTPase assays were used to determine the effects of levamisole (Sigma), pentamidine (American Pharmaceutical Partners, Inc.), and ketoconazole (Sigma) on recombinant PTPases, following established procedures (Pathak et al., J. Immunol. 167, 3391 (2001); Pathak et al., Leukemia 16, 2285 (2002), Yi et al., J. Immunol. 169, 5978 (2002)) using a synthetic phosphotyrosine peptide or DiFMUP as the substrate as detailed above in section I.A.2.

[2] = test system: WM9 cells; test: WM9 cell growth, MTT; format: cell-based, human
Procedure: For cell proliferation assays, cells were grown in 10% FCS culture medium containing various amounts of IFNs and/or sodium stibogluconate in 96 well plates and cultured at 37° C. for 3 or 6 days as indicated. The numbers of viable cells in proliferation assays were determined by MTT assays as described in Phatak et al., J. Immunol. 167, 3391 (2001).
Renca (Murphy, G. P., and W. J. Hrushesky. 1973. A murine renal cell carcinoma. J Natl Cancer Inst 50:1013), Jurkat (Gillis, S., and J. Watson. 1980. Biochemical and biological characterization of lymphocyte regulatory molecules. V. Identification of an interleukin 2-producing human leukemia T cell line. J Exp Med 152:1709) and WM9 (Forsberg, K., I. Valyi-Nagy, C. H. Heldin, M. Herlyn, and B. Westermark. 1993. Platelet-derived growth factor (PDGF) in oncogenesis: development of a vascular connective tissue stroma in xenotransplanted human melanoma producing PDGF-BB. Proc Natl Acad Sci USA 90:393) cell lines were obtained from a colleague at the Cleveland Clinic Foundation (CCF) and cultured in RPMI 1640 medium supplemented with 10% fetal calf serum (FCS). Recombinant IL-2 (Proleukin, 22 million IU/1.3 mg, Chiron, Emeryville, Calif.) was purchased from the CCF pharmacy. SSG has been described previously (Yi, T., M. K. Pathak, D. J. Lindner, M. E. Ketterer, C. Farver, and E. C. Borden. 2002. Anticancer activity of sodium stibogluconate in synergy with IFNs. J Immunol 169:5978).
NIH3T3 (Yi, et al., Blood 85, 87 (1995)), WM9 (Forsberg, et al., Proc. Nat. Acad Sci. USA 90, 393 (1993)), DU145 (Mickey, et al., Cancer Res. 37, 4049 (1977)), LoVo (Drewinko, et al., Cancer Res. 36, 467 (1976)), HEY (Buick, et al., Cancer Res. 45, 3668 (1985)), U251 (Yoshida, et al., Cancer 50, 410 (1982)), A549 (Giard, et al., J. Natl. Cancer Inst. 51, 1417 (1973)) and SK-N-SH (Helson, et al., Cancer Res. 35, 2594 (1975)) cell lines have been described and were cultured in RPMI 1640 supplemented with 10% fetal calf serum (FCS). For measurement of sodium stibogluconate effects on cell growth in vitro, cells were cultured in the absence (−) or presence (+) of various amounts of sodium stibogluconate for 6 days with viable cells quantified by MTT assays (Mosmann, J. Immunol. Methods 65, 55 (1983)). Percentages of growth inhibition by sodium stibogluconate were calculated (.+−.x%).

inhibition of MKP1 [1] | SMILES | effect on IFN-alpha-induced growth inhibition of WM9 ([2]; most obviously at 0.625-1.25 μg/ml) | growth inhibition of WM9 cells ([2]; single agent, 2.5-5 μg/ml, 6 days) | inhibitory activity against MKP1 [1] | inhibitory activity against MKP1 ([1]; listed as SS) | WM9 cells, single agent ([2]; 50 μg/ml and 100 μg/ml, day 6 culture) | WM9 cell growth in culture ([2]; SSG, 6 days, comparable conditions) | effect on IFN-alpha activity, WM9 ([2]; 40 μg/ml) | activity against WM9 cells ([2]; 0.625-20 μg/ml, single agent or with IFN-alpha) | inhibition at 40 µg/mL ([2]; Homo sapiens, WM9, 144 h, single agent, 40 μg/ml, 6 days) [%]
substantial inhibition | N=C(N)c1ccc(OCCCCCOc2ccc(C(=N)N)cc2)cc1 [pentamidine] | augmented IFN-alpha-induced growth inhibition | 86-97% | – | – | – | – | – | – | –
– | O.O.O.O.O.O.O.O.O.O=C([O-])[C@@H]1[O][Sb]2([O-])([O][Sb]34([OH])[O][C@H]([C@H](O)CO)[C@H]([O]3)[C@H](C(=O)[O-])[O]4)[O][C@H]([C@H](O)CO)[C@@H]1[O]2.[Na+].[Na+].[Na+] [sodium stibogluconate] | – | – | no obvious inhibitory activity | no obvious effects | killed all cells | inhibited by SSG in a dose-dependent manner | – | – | –
substantial inhibition | CC(=O)N1CCN(c2ccc(OCC3COC(Cn4ccnc4)(c4ccc(Cl)cc4Cl)O3)cc2)CC1 (centres unmarked) [ketoconazole] | – | – | – | – | – | – | minor augmenting effect | no apparent activity | 67
